# Measurements: article PMC3983855, “Identification and enzymatic characterization of acid phosphatase from Burkholderia gladioli” (BMC Research Notes, 2014)
# System: membrane-bound acid phosphatase (MBAcP)
# Details: read-out: K0.5; 50 mM acetate pH 6.0, 37°C; membrane fraction; n = 1.3
smiles,measurement,value
O=[N+]([O-])c1ccc(OP(=O)(O)O)cc1 [p-nitrophenylphosphate],Km,65 µM
